Results taken from PMC2903464, “NPR-B natriuretic peptide receptors in human corneal epithelium: mRNA, immunohistochemistochemical, protein, and biochemical pharmacology studies” (Molecular Vision, 2010).

Target: T1, NPR-B (Homo sapiens, UniProt P20594)
T1 construct: gene NPR2; endogenous membrane guanylyl cyclase receptor in intact CEPI-17-CL4 cells; NPR-A also expressed; homodimer
T1 sequence (P20594 23-1047): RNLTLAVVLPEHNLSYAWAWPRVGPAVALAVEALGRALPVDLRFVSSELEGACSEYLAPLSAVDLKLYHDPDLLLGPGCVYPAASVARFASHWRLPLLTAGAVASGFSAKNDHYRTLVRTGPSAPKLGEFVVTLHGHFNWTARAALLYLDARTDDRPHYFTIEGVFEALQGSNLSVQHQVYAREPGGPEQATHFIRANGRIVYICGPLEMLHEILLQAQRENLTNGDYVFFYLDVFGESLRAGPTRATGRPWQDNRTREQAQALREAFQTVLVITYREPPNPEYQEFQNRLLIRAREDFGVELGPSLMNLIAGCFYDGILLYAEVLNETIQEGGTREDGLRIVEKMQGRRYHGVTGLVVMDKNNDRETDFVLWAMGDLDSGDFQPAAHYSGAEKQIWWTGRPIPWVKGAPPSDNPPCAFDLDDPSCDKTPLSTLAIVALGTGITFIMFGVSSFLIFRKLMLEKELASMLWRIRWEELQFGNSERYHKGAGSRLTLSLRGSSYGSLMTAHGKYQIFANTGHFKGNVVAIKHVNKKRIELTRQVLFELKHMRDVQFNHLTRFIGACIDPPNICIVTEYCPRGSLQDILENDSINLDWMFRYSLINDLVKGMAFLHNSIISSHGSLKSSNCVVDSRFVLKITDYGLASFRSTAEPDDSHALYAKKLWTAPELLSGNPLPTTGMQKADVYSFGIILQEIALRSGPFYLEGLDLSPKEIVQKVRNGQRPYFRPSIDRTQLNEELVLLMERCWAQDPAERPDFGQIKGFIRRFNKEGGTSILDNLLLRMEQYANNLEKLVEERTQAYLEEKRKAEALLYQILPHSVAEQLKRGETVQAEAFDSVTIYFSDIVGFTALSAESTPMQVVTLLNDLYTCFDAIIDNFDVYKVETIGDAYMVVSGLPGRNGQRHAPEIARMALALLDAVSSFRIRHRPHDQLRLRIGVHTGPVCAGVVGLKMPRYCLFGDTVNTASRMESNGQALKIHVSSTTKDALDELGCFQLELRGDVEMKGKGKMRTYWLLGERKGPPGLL
Test: inhibition of CNP fragment-induced cGMP accumulation in CEPI-17-CL4 cells, enzyme immunoassay
Type: cell-based
Details: 30 nM CNP fragment as agonist, 1 mM IBMX, 23 °C, 20 min pre-incubation; partial inhibition; native cells expressing NPR-A and NPR-B; compound described as NPR-A antagonist

`O=C1Nc2ccccc2C1=O` [isatin] gave a Ki of 5.3 ± 1.7 µM.
